Laboratory results taken from US20220023433A1, “Saponin Conjugates” (Sapreme Technologies B.V., priority 2018, published 2022).

Legend:
[1] = test system: breast cancer; details: preclinical models of breast cancer; cited from earlier work
[2] = test system: HeLa cells; assay: Cell viability assay (MTS): co-administration with SO1861 and dianthin-EGF, inhibition of SO1861-mediated endosomal escape; format: cell-based, human; details: 500 nM test substance + SO1861 concentration curve + […] dianthin-EGF, 72 hr
Method: HeLa cells were seeded in DMEM (PAN-Biotech GmbH) supplemented with 10% fetal bovine serum (PAN-Biotech GmbH) and 1% penicillin/streptomycin (PAN-Biotech GmbH), in a 96 well plate at 5,000 c/w in 100 μL/well and incubated overnight at 37° C. and 5% CO2. The next day 20× concentrated stocks of the PAMAM, PAMAM-conjugates, G4-dendron (prepared in Example 3) or chloroquine (Sigma Aldrich) samples were prepared in DMEM. The media was removed from the cell culture plate and replaced by […] culture media, followed by the addition of 10 μL sample/well (from the 20× concentrated stocks) and a 45 min incubation at 37° C. […] Followed by 15 sec sonication and a brief re-heating at 50° C. for 1 min, while shaking at 1,250 rpm. Subsequently a serial dilution of SO1861 was prepared in PBS.
As control for the inhibition of endosomal acidification chloroquine was used.

[3] = pH dependent hydrolysis of the hydrazone bond followed by MALDI-TOF-MS; format: physicochemical; details: HCl solution at pH 3; MALDI-TOF-MS at two points in time

For ado-trastuzumab emtansine, the “dose levels inducing tumor regression” value [1] is listed as no less than 3 mg/kg.

For CCN(CC)CCCC(C)Nc1ccnc2cc(Cl)ccc12 (stereo not drawn) [chloroquine], the “inhibition of SO1861-mediated endosomal escape of the targeted toxin and subsequent cell killing” value [2] was “inhibit the SO1861-mediated endosomal escape of the targeted toxin and subsequent cell killing”.

With CC(=O)OC1C(C)OC(OC2C(C)OC(OC(=O)[C@]34CCC(C)(C)CC3C3=CCC5[C@@]6(C)CC[C@H](OC7OC(C(=O)O)C(O)C(OC8OCC(O)C(O)C8O)C7OC7OC(CO)C(O)C(O)C7O)[C@@](C)(/C=N/NC(=O)CCCCCN7C(=O)C=CC7=O)C6CC[C@@]5(C)[C@]3(C)C[C@H]4O)C(OC3OC(C)C(OC4OCC(O)C(OC5OC(CO)C(O)C(O)C5O)C4O)C(O)C3O)C2O)C(O)C1OC1OCC(O)C(O)C1O (stereo partly drawn) [SO1861-EMCH] the “hydrolysis of the hydrazone bond” value [3] was “the hydrazone bond is responsive towards hydrolysis and gets cleaved”.
